Laboratory results: the CheMixHub ionic liquid set
± gives the uncertainty stated by the source.

Test: xn = mol fraction of the nth substance listed
[1] = 293.15 K, 101.3 kPa, x1 = 0.2045
[2] = 293.15 K, 101.3 kPa, x1 = 0.2984
[3] = 298.15 K, 101.3 kPa, x1 = 0.0989
[4] = 298.15 K, 101.3 kPa, x1 = 0.599
[5] = 298.15 K, 101.3 kPa, x1 = 0.7045
[6] = 313.15 K, 101.3 kPa, x1 = 0.7045
[7] = 318.15 K, 101.3 kPa, x1 = 0.2045
[8] = 318.15 K, 101.3 kPa, x1 = 0.2984
[9] = 318.15 K, 101.3 kPa, x1 = 0.599
[10] = 318.15 K, 101.3 kPa, x1 = 0.7045
[11] = 318.15 K, 101.3 kPa, x1 = 0.8942
[12] = 323.15 K, 101.3 kPa, x1 = 0.2045
[13] = 323.15 K, 101.3 kPa, x1 = 0.499
[14] = 323.15 K, 101.3 kPa, x1 = 0.599
[15] = 328.15 K, 101.3 kPa, x1 = 0.499
[16] = 328.15 K, 101.3 kPa, x1 = 0.599
[17] = 328.15 K, 101.3 kPa, x1 = 0.796
[18] = 328.15 K, 101.3 kPa, x1 = 0.8942
[19] = 333.15 K, 101.3 kPa, x1 = 0.0989
[20] = 343.15 K, 101.3 kPa, x1 = 0.499

Structure (SMILES): CC[n+]1ccn(C)c1.N#C[S-] + CO
- electrical conductivity (298.15 K, 100 kPa, x1 = 0.5972): 2.07 ± 0.62 S/m
- viscosity (298.15 K, 100 kPa, x1 = 0.5972): 12.8 mPa·s
- electrical conductivity (303.15 K, 100 kPa, x1 = 0.3859): 2.58 ± 0.77 S/m
- viscosity (303.15 K, 100 kPa, x1 = 0.3859): 7 mPa·s
- viscosity (303.15 K, 100 kPa, x1 = 1): 20 mPa·s
- electrical conductivity (308.15 K, 100 kPa, x1 = 0.0988): 2.57 ± 0.77 S/m
- viscosity (308.15 K, 100 kPa, x1 = 0.0988): 1.9 mPa·s
- electrical conductivity (308.15 K, 100 kPa, x1 = 0.5006): 2.65 ± 0.79 S/m
- viscosity (308.15 K, 100 kPa, x1 = 0.5006): 7.9 mPa·s
- electrical conductivity (308.15 K, 100 kPa, x1 = 1): 2.27 ± 0.68 S/m
- viscosity (308.15 K, 100 kPa, x1 = 1): 18 mPa·s
- viscosity (323.15 K, 100 kPa, x1 = 0.1966): 2.2 mPa·s
- electrical conductivity (323.15 K, 100 kPa, x1 = 0.3005): 3.7 ± 1.1 S/m
- viscosity (323.15 K, 100 kPa, x1 = 0.3005): 3.2 mPa·s
- electrical conductivity (323.15 K, 100 kPa, x1 = 0.804): 3.13 ± 0.94 S/m
- viscosity (323.15 K, 100 kPa, x1 = 0.804): 9.1 mPa·s
- electrical conductivity (323.15 K, 100 kPa, x1 = 0.8997): 3.08 ± 0.92 S/m
- viscosity (323.15 K, 100 kPa, x1 = 0.8997): 10.4 mPa·s
- electrical conductivity (323.15 K, 100 kPa, x1 = 1): 3.05 ± 0.91 S/m
- viscosity (323.15 K, 100 kPa, x1 = 1): 12 mPa·s

Structure (SMILES): C[N+](C)(C)CCO.O=S(=O)([N-]S(=O)(=O)C(F)(F)F)C(F)(F)F + OCCOCCOCCOCCO
- viscosity (298.15 K, 101 kPa, x2 = 0): 144.8 ± 6.1 mPa·s

Structure (SMILES): c1ccsc1 + CCCCCCCC[n+]1ccc2ccccc2c1.O=S(=O)([N-]S(=O)(=O)C(F)(F)F)C(F)(F)F
- viscosity (348.15 K, 101 kPa, x1 = 1): 0.34 ± 0.01 mPa·s

Structure (SMILES): CCCCCCCCCC(=O)O + CCCC[N+](CCCC)(CCCC)CCCC.[Cl-]
- electrical conductivity (293.15 K, 100 kPa, x2 = 0.25): 0.00575 ± 0.00058 S/m
- viscosity (293.15 K, 100 kPa, x2 = 0.25): 201 ± 37 mPa·s
- electrical conductivity (303.15 K, 100 kPa, x2 = 0.25): 0.00886 ± 0.00089 S/m
- viscosity (303.15 K, 100 kPa, x2 = 0.25): 135 ± 18 mPa·s
- electrical conductivity (313.15 K, 100 kPa, x2 = 0.25): 0.0133 ± 0.0013 S/m
- viscosity (313.15 K, 100 kPa, x2 = 0.25): 93.3 ± 7.8 mPa·s
- viscosity (313.15 K, 100 kPa, x2 = 0.333): 155 ± 18 mPa·s
- electrical conductivity (323.15 K, 100 kPa, x2 = 0.25): 0.0194 ± 0.0019 S/m
- viscosity (323.15 K, 100 kPa, x2 = 0.25): 65.9 ± 2.6 mPa·s
- electrical conductivity (333.15 K, 100 kPa, x2 = 0.25): 0.0277 ± 0.0028 S/m
- viscosity (333.15 K, 100 kPa, x2 = 0.25): 47.5 ± 1.6 mPa·s
- viscosity (343.15 K, 100 kPa, x2 = 0.333): 39.5 ± 1.9 mPa·s

Structure (SMILES): CC[n+]1ccn(C)c1.N#C[S-] + CC1COC(=O)O1
- electrical conductivity [1]: 2.09 ± 0.022 S/m
- viscosity [1]: 5.834 ± 0.081 mPa·s
- electrical conductivity [2]: 2.24 ± 0.023 S/m
- viscosity [2]: 7.631 ± 0.092 mPa·s
- electrical conductivity [3]: 1.68 ± 0.017 S/m
- viscosity [3]: 3.689 ± 0.069 mPa·s
- electrical conductivity (298.15 K, 101.3 kPa, x1 = 0.4): 2.36 ± 0.024 S/m
- viscosity (298.15 K, 101.3 kPa, x1 = 0.4): 8.466 ± 0.098 mPa·s
- electrical conductivity [4]: 2.15 ± 0.022 S/m
- viscosity [4]: 12.93 ± 0.13 mPa·s
- electrical conductivity [5]: 2.06 ± 0.021 S/m
- viscosity [5]: 15.47 ± 0.15 mPa·s
- electrical conductivity [6]: 2.76 ± 0.028 S/m
- viscosity [6]: 10.1 ± 0.11 mPa·s
- electrical conductivity [7]: 3.18 ± 0.032 S/m
- viscosity [7]: 2.991 ± 0.066 mPa·s
- electrical conductivity [8]: 3.43 ± 0.035 S/m
- viscosity [8]: 3.817 ± 0.069 mPa·s
- electrical conductivity [9]: 3.12 ± 0.032 S/m
- viscosity [9]: 7.316 ± 0.09 mPa·s
- electrical conductivity [10]: 3.02 ± 0.031 S/m
- viscosity [10]: 8.83 ± 0.1 mPa·s
- electrical conductivity [11]: 2.77 ± 0.028 S/m
- viscosity [11]: 11.64 ± 0.12 mPa·s
- electrical conductivity [12]: 3.45 ± 0.035 S/m
- viscosity [12]: 2.665 ± 0.065 mPa·s
- electrical conductivity [13]: 3.49 ± 0.035 S/m
- viscosity [13]: 5.278 ± 0.077 mPa·s
- electrical conductivity [14]: 3.4 ± 0.034 S/m
- viscosity [14]: 6.4 ± 0.083 mPa·s
- electrical conductivity [15]: 3.77 ± 0.038 S/m
- viscosity [15]: 4.608 ± 0.073 mPa·s
- electrical conductivity [16]: 3.68 ± 0.037 S/m
- viscosity [16]: 5.614 ± 0.079 mPa·s
- electrical conductivity [17]: 3.45 ± 0.035 S/m
- viscosity [17]: 7.7 ± 0.092 mPa·s
- electrical conductivity [18]: 3.31 ± 0.034 S/m
- viscosity [18]: 8.9 ± 0.1 mPa·s
- electrical conductivity [19]: 3.33 ± 0.034 S/m
- viscosity [19]: 1.702 ± 0.062 mPa·s
- electrical conductivity (338.15 K, 101.3 kPa, x1 = 0.0989): 3.601 ± 0.036 S/m
- viscosity (338.18 K, 101.3 kPa, x1 = 0.2984): 2.283 ± 0.063 mPa·s
- electrical conductivity (343.15 K, 101.3 kPa, x1 = 0.4): 4.79 ± 0.048 S/m
- viscosity (343.15 K, 101.3 kPa, x1 = 0.4): 2.568 ± 0.064 mPa·s
- electrical conductivity [20]: 4.66 ± 0.047 S/m
- viscosity [20]: 3.183 ± 0.067 mPa·s
- electrical conductivity (343.15 K, 101.3 kPa, x1 = 1): 4.01 ± 0.041 S/m
- viscosity (343.15 K, 101.3 kPa, x1 = 1): 7.236 ± 0.088 mPa·s

Structure (SMILES): CCOC(C)(C)C + CCO + CCOS(=O)(=O)[O-].CC[n+]1ccn(C)c1
- viscosity (298.15 K, 101 kPa, x2 = 0.1248, x1 = 0.0174): 63 ± 1.8 mPa·s
- viscosity (298.15 K, 101 kPa, x2 = 0.1973, x1 = 0.0324): 46.3 ± 1.2 mPa·s
- viscosity (298.15 K, 101 kPa, x2 = 0.3162, x1 = 0.029): 30.74 ± 0.76 mPa·s
- viscosity (298.15 K, 101 kPa, x2 = 0.395, x1 = 0.0475): 21.09 ± 0.5 mPa·s
- viscosity (298.15 K, 101 kPa, x2 = 0.4866, x1 = 0.0465): 14.2 ± 0.32 mPa·s
- viscosity (298.15 K, 101 kPa, x2 = 0.5653, x1 = 0.0501): 9.77 ± 0.22 mPa·s
- viscosity (298.15 K, 101 kPa, x2 = 0.6539, x1 = 0.3132): 0.878 ± 0.025 mPa·s
- viscosity (298.15 K, 101 kPa, x2 = 0.6567, x1 = 0.0845): 5.13 ± 0.12 mPa·s
- viscosity (298.15 K, 101 kPa, x2 = 0.6872, x1 = 0.0848): 4.39 ± 0.1 mPa·s
- viscosity (298.15 K, 101 kPa, x2 = 0.6916, x1 = 0.2368): 1.352 ± 0.033 mPa·s
- viscosity (298.15 K, 101 kPa, x2 = 0.6923, x1 = 0.035): 5.65 ± 0.13 mPa·s
- viscosity (298.15 K, 101 kPa, x2 = 0.7064, x1 = 0.1236): 3.102 ± 0.072 mPa·s
- viscosity (298.15 K, 101 kPa, x2 = 0.7089, x1 = 0.2556): 0.974 ± 0.025 mPa·s
- viscosity (298.15 K, 101 kPa, x2 = 0.7162, x1 = 0.1736): 1.937 ± 0.046 mPa·s
- viscosity (298.15 K, 101 kPa, x2 = 0.7254, x1 = 0.0338): 4.79 ± 0.11 mPa·s
- viscosity (298.15 K, 101 kPa, x2 = 0.7605, x1 = 0.0564): 3.565 ± 0.083 mPa·s
- viscosity (298.15 K, 101 kPa, x2 = 0.7622, x1 = 0.1589): 1.568 ± 0.038 mPa·s
- viscosity (298.15 K, 101 kPa, x2 = 0.7999, x1 = 0.077): 2.401 ± 0.056 mPa·s
- viscosity (298.15 K, 101 kPa, x2 = 0.8182, x1 = 0.1407): 1.208 ± 0.029 mPa·s
- viscosity (298.15 K, 101 kPa, x2 = 0.841, x1 = 0.072): 1.86 ± 0.044 mPa·s
- viscosity (298.15 K, 101 kPa, x2 = 0.902, x1 = 0.0527): 1.428 ± 0.034 mPa·s

Structure (SMILES): CCCC[P+](CCCC)(CCCC)CCCC.F[B-](F)(F)F + C1CCOC1
- viscosity (298.15 K, 100 kPa, x1 = 0.0008214): 0.468 ± 0.008 mPa·s
- viscosity (298.15 K, 100 kPa, x1 = 0.001232): 0.473 ± 0.008 mPa·s
- viscosity (298.15 K, 100 kPa, x1 = 0.001649): 0.478 ± 0.008 mPa·s
- viscosity (298.15 K, 100 kPa, x1 = 0.002058): 0.483 ± 0.008 mPa·s
- viscosity (298.15 K, 100 kPa, x1 = 0.002474): 0.489 ± 0.008 mPa·s
- viscosity (298.15 K, 100 kPa, x1 = 0.002883): 0.495 ± 0.008 mPa·s
